Earlier results in US9260760B2, “Method for determining complete response to anticancer therapy” (Board of Regents, The University of Texas System, priority 2012, dated 2016).
Like-named read-outs stand apart in the source and are kept apart here.

Assays:
[1] = test system: metastatic colorectal cancer; conditions: cited from earlier work
[2] = cited from earlier work

CCCCCOC(=O)Nc1nc(=O)n([C@@H]2O[C@H](C)[C@@H](O)[C@H]2O)cc1F [Capecitabine, capecitabine]
Complete response (%) ([1]; first-line therapy): 3%
Median OS (months) ([1]; first-line therapy): 12.4-13.2 months
Median PFS (months) ([1]; first-line therapy): 4.2 months
Response rate (%) ([1]; first-line therapy): 19-25%
Stable disease (%) ([1]; first-line therapy): 50%
time at which half of the patients experienced tumor progression ([1]; monotherapy capecitabine): 2-4 months
Complete response (%) ([1]; second-line therapy): 0%
Median OS (months) ([1]; second-line therapy): 12.2 months
Median PFS (months) ([1]; second-line therapy): 2.1 months
Response rate (%) ([1]; second-line therapy): 0%
Stable disease (%) ([1]; second-line therapy): 50%
grade 3 HFS ([2]; capecitabine at 1250 mg/m2/d): ≤ 17%
patients with HFS onset within six weeks ([2]; capecitabine at 1250 mg/m2/d): 93%
patients with most severe HFS episode within six weeks ([2]; capecitabine at 1250 mg/m2/d): 67.9%
HFS ([2]; capecitabine starting at 750-1000 mg/m2/d bid with irinotecan (Patt et al., 2004)): 35%
incidence of grade ⅔ HFS ([2]; earlier study, capecitabine 1000 mg/m2/d bid (Lin et al., 2002)): 34.2%
